Assay results from patent US8680137B2, “Agents and methods for treating ischemic and other diseases” (Nono Inc., priority 2009, dated 2014).
“Also recorded” adds a separate entry of the source. Read-outs that look alike come from different tables or passages of the source.

Legend:
[1] = tested on: retinal ganglion cells (RGCs); experiment: OGD in cultured primary retinal ganglion cells, PI fluorescence; format: cell-based, rat; conditions: 5 μM, 24 hours after 3 hour OGD
Source text: Acute and chronic retinal ischemia are major causes of blindness. Retinal damage from glaucoma, also termed “slow excitotoxicity” afflicts millions of people each year and is the second leading cause of blindness worldwide (after cataracts). Diabetic retinopathy is also very common, afflicting about 40% of diabetics and, while less commonly producing complete blindness, is a leading cause of visual impairment. The retina is an extension of the CNS, and was the first organ in which excitotoxicity was described. This invention discloses TPRM7 antagonists that can inhibit anoxic retinal damage. To examine this, we cultured primary retinal ganglion cells (RGCs) and organotypic whole retinas from neonatal rat pups by standard methods and exposed them to OGD (1 or 3 hours). […] This underscores our earlier discussion that inhibiting TRPM7 is a ubiquitous mechanism for the reduction of ischemic damage.

[2] = tested on: voltage-sensitive Na+ currents; experiment: Voltage-sensitive Na+ currents in cultured cortical neurons; format: cell-based; conditions: at concentrations sufficient to inhibit TRPM7
Method: (§1) To examine selectivity of a subset of these TRPM7 inhibitors, experiments were performed to determine whether TRPM7 antagonists cross-react with other ionic channels and receptors. […] From a therapeutic perspective, knowledge of cross-reactivity of candidate drugs could shed light on other ischemic mechanisms and raise awareness of potential side effects. M21 has no effect on voltage-sensitive Na+, and Ca2+ currents in cultured cortical neurons […] TRPM7-expressing HEK293 cells, but inhibits K+ currents by about 20% at membrane potentials of −10 mV. M21 had no effect on agonist-induced Ca2+ changes in HEK293 cells transfected with constructs for TRPM2, TRPM4, TRPM6, TRPV1, TRPC2 and TRPA1. M21 also has no effect on NMDA and AMPA receptor currents in cultured neurons. […] Similar experiments were performed with other TRPM7 inhibitors including M5 and M11.

[3] = tested on: voltage-sensitive Ca2+ currents; experiment: Voltage-sensitive Ca2+ currents in cultured cortical neurons; format: cell-based; conditions: at concentrations sufficient to inhibit TRPM7
Method: as §1

[4] = tested on: mixed retinal cell cultures; experiment: OGD in dissociated mixed rat retinal cultures; format: cell-based
Method: The ability of TRPM7 inhibitors to protect other types of cell cultures following exposure to anoxia, including non-neuronal cell cultures, has also been tested. In general, cultures of growing cells are exposed to a 1-6 hour period of anoxia, followed by addition of a TRPM7 at a range of concentrations upon removal from anoxic conditions. […] This implies that TRPM7 inhibitors may be useful both as a treatment for anoxic damage to patients presenting symptoms of a disorder associated with anoxic damage, or as a preventative measure. Such preventative measures can be chronic, such as treatment to protect against damage from heart attacks or strokes, or acute, to be given prior to or during surgical procedures, which may include but not be limited to procedures that involve endovascular invasion and have the possibility of dislodging material that may block blood flow through arteries. […]

K+ currents = K+ currents in cultured cortical neurons; format: cell-based
Method: as §1

B16F1 melanoma cells = experiment: Cancer cell proliferation, B16F1; format: cell-based, mouse; conditions: B16F1, FIG. 81
Method: (§2) To determine the breadth of efficacy in cancers, we examined the efficacy of a range of TRPM7 inhibitors for their ability to inhibit cell proliferation in cancer cell lines. Representative figures are included as examples.
(§3) Cells (Table 1) were grown to 70% confluency, trypsinized, counted, and seeded in 96-well flat-bottom plates at a final concentration of 2.5×10^3-5.0×10^3 cells/well in growth media containing 5% FBS (Day 0). Other well sizes and cell densities were used successfully as well. Cells were allowed to incubate in growth media for 24 hours to allow for maximum adhesion. Treatment with the test agent began on Day 1 and continued for 72 hours either with or without retreatment. At the 72 hour time point, viable cell numbers are quantified by the CellTiter-Glo® cell viability assay as described above, or using standard MTT, SRB or BrDU assays. Experiments were repeated at least twice with the same concentrations to determine growth inhibitory activity.
(§4) Data Collection—For the cell proliferation studies, data from each experiment was collected and expressed as % Cell Growth using the following calculation: % Cell Growth=(ftest/fvehicle)×100 Where ftest is the luminescent signal of the tested sample, and fvehicle is the luminescence of the vehicle in which the drug is dissolved (or appropriate measure for the other viability/proliferation measures). […]

B16F10 melanoma cells = experiment: Cancer cell proliferation, B16F10; format: cell-based, mouse; conditions: for proliferation: B16F10, FIG. 81; for Demonstrated Reduction of Proliferation at or below 10 μM Inhibitor concentration: B16F10, >20% inhibition at 48-96 hours, MTT, SRB, luminescence or BrDU; for IC50: Mus musculus
Method: as §2, §3
as §4, with “measures). Dose response graphs and IC50 values were generated using standard software using the following variable slope equation:” for “measures).”

[5] = tested on: MCF-7 breast cancer cells; experiment: Cancer cell proliferation, MCF-7; format: cell-based; conditions: for proliferation: MCF-7, FIG. 80; for Demonstrated Reduction of Proliferation at or below 10 μM Inhibitor concentration: MCF-7, >20% inhibition at 48-96 hours, MTT, SRB, luminescence or BrDU
Method: as §2, §3
as §4, with “measures). Dose response graphs and IC50 values were generated using standard software using the following variable slope equation:” for “measures).”

HCT-116 colon cancer = experiment: Cancer cell proliferation, HCT-116; format: cell-based; conditions: for IC50: Homo sapiens
Method: as §2, §3
as §4, with “measures). Dose response graphs and IC50 values were generated using standard software using the following variable slope equation:” for “measures).”

DMS53 Lung cancer = experiment: Cancer cell proliferation, DMS53; format: cell-based; conditions: >20% inhibition at 48-96 hours, MTT, SRB, luminescence or BrDU
Method: as §2, §3, §4

[6] = tested on: MDA-MB231 breast cancer cells; experiment: Cancer cell proliferation, MDA-MB231; format: cell-based; conditions: MDA-MB231, FIG. 80
Method: as §2, §3, §4

NIH3T3 fibroblasts = experiment: Toxicity on NIH3T3 fibroblast cells, PI uptake after 72 hours; format: cell-based; conditions: concentrations that reduce proliferation of cancerous cells
Method: To differentiate between an anti-proliferative effect of the TRPM7 inhibitors and cellular toxicity, the compounds were added to various ‘non-cancerous’ cell lines at the same concentrations and the percentage of PI uptake was measured after 72 hours.

U2OS osteosarcoma = experiment: Cancer cell proliferation, U2OS; format: cell-based; conditions: >20% inhibition at 48-96 hours, MTT, SRB, luminescence or BrDU
Method: as §2, §3, §4

SMILES	cytoprotection after OGD compared with U0126 or NA-1 [1]	effect on voltage-sensitive Na+ currents [2]	effect on voltage-sensitive Ca2+ currents [3]	survival following exposure to OGD [4]	proliferation (B16F1 melanoma cells)	proliferation (B16F10 melanoma cells)	Demonstrated Reduction of Proliferation at or below 10 μM Inhibitor concentration (B16F10 melanoma cells)	proliferation [5]	Demonstrated Reduction of Proliferation at or below 10 μM Inhibitor concentration [5]	Demonstrated Reduction of Proliferation at or below 10 μM Inhibitor concentration (DMS53 Lung cancer)	proliferation [6]	toxicity (PI uptake) (NIH3T3 fibroblasts)	Demonstrated Reduction of Proliferation at or below 10 μM Inhibitor concentration (U2OS osteosarcoma)	also measured
Cc1c(Cc2ccc(Cl)c(Cl)c2)c(=O)oc2cc(O)ccc12 [Compound M21]	more protective	no effect	no effect	promote survival	–	–	–	–	–	–	–	–	–	inhibition of K+ currents (K+ currents; membrane potentials of −10 mV): about 20%
COc1cc2c(cc1OC)C(c1sc3ccccc3c1Cl)=NCC2 [Compound M6]	more protective	–	–	–	reduce the proliferation	reduce the proliferation	B16F10 melanoma	reduce proliferation	MCF-7	DMS53 Lung cancer	reduce proliferation	not toxic; also recorded: do not show toxicity	U2OS osteosarcoma	IC50 (B16F10 melanoma cells; B16-F10, 72 h, B16-F10, Exp 1, 72 hours, read-out: IC50): 16.5 µM; IC50 (B16F10 melanoma cells; B16-F10, 72 h, B16-F10, Exp 2, 72 hours, read-out: IC50): 14.3 µM; IC50 (B16F10 melanoma cells; B16-F10, B16-F10, mean of Exp 1 and Exp 2, read-out: Mean IC50): 15.6 µM; Demonstrated Reduction of Proliferation at or below 10 μM Inhibitor concentration (HCT-116 colon cancer; HCT-116, >20% inhibition at 48-96 hours, MTT, SRB, luminescence or BrDU): HCT-116; IC50 (HCT-116 colon cancer; HCT-116, 72 h, HCT-116, Exp 1, 72 hours, read-out: IC50): 14.7 µM; IC50 (HCT-116 colon cancer; HCT-116, 72 h, HCT-116, Exp 2, 72 hours, read-out: IC50): 17.2 µM; IC50 (HCT-116 colon cancer; HCT-116, HCT-116, mean of Exp 1 and Exp 2, read-out: Mean IC50): 16 µM
O=C(Nc1ccc(F)cc1)C(Sc1ccc(Cl)cc1)c1ccccc1 (centres unmarked) [Compound M11]	–	did not affect	did not affect	promote survival	reduce the proliferation	reduce the proliferation	B16F10 melanoma	reduce proliferation	MCF-7	DMS53 Lung cancer	reduce proliferation	do not show toxicity	U2OS osteosarcoma	effect on potassium currents (K+ currents): slight inhibition
